# The source made the active and inactive calls.
# Assays:
# Beta-galactosidase = Beta-galactosidase (Escherichia coli, UniProt Q8VNN2); test: Dose response counterscreen for EBI2 assay utilizing the enzyme, b-galactosidase.; assay type: functional
# [1] = HEK-293T cell viability reduction – luminescence, B-cell screen hits, cytotoxicity control for BCR NF-kB inhibitor project, dose response (AID 489021); assay type: functional, cell-based;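 further: HEK-293T cells carrying an NF-kB luciferase reporter; cells exposed to compound for about 14 hours before viability readout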
# [2] = target: T1, Sentrin-specific protease 1 (Homo sapiens, UniProt Q9P0U3); test: Dose response confirmation of small molecule inhibitors of the catalytic domain of the SUMO protease, SENP1 in a FRET assay.; assay type: functional; settings: read-out: IC50_Mean
# [3] = target: T1, Sentrin-specific protease 1; test: SENP1 catalytic domain blockers, concentration series – biochemical, kinetic FRET, dose response (AID 651697); assay type: functional; settings: read-out: IC50_Mean
# [4] = MITF Orthogonal Assay: SK-MEL-5 CTG Assay Measured in Cell-Based System Using Plate Reader - 2084-02_Inhibitor_Dose_DryPowder_Activity_Set7.; assay type: functional
# [5] = MITF: Counter assay: A375 proliferation Measured in Cell-Based System Using Plate Reader - 2084-03_Inhibitor_Dose_DryPowder_Activity_Set8.; assay type: functional; settings: A-375
# Paired box protein Pax-8 = Paired box protein Pax-8 (Homo sapiens, UniProt Q06710); test: PAX8 transcriptional activity inhibition in RMG-I – RMG-I cells, luciferase, cherry-pick, dose response (AID 687027); assay type: functional, cell-based;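 further: luciferase reporter driven by Pax8 target thyroperoxidase promoter measured by SteadyGlo luminescence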
# cells = assay type: functional, cell-based
# [6] = target: T2, Nuclear receptor subfamily 0 group B member 1 (Homo sapiens, UniProt P51843); assay type: functional, cell-based;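 further: HEK293T cells transfected with SF-1 and DAX-1 plus StAR promoter luciferase reporter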
# T2 sequence (P51843 whole entry): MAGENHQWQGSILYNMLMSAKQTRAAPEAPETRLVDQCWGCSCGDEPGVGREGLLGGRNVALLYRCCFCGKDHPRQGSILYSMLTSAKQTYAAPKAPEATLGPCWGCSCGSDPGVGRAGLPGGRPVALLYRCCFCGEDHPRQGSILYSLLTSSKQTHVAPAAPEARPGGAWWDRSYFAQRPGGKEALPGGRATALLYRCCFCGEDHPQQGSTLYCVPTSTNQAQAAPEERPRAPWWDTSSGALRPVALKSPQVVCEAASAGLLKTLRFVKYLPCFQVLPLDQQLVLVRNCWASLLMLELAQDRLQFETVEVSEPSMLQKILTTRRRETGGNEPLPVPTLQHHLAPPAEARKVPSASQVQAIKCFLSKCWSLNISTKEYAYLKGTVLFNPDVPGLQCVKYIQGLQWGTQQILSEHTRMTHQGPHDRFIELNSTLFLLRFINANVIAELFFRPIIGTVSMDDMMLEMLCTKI
# [7] = target: Melanin-concentrating hormone receptor 1 (Homo sapiens, UniProt Q99705); test: Fluorescence-based counterscreen for antagonists of the G-protein coupled receptor 7 (GPR7): cell-based high throughput dose response assay to identify antagonists of the melanin-concentrating hormone receptor 1 (MCHR1).; assay type: functional
# [8] = target: T3, Neuropeptides B/W receptor type 1 (Homo sapiens, UniProt P48145); test: Fluorescence-based dose response cell-based high throughput screening assay to identify antagonists of the G-protein coupled receptor 7 (GPR7). [Related pubchem assays: 1952 (Screening assay (GPR7 antagonists).), 1880 (Summary AID.)]; assay type: functional
# T3 sequence (P48145 whole entry): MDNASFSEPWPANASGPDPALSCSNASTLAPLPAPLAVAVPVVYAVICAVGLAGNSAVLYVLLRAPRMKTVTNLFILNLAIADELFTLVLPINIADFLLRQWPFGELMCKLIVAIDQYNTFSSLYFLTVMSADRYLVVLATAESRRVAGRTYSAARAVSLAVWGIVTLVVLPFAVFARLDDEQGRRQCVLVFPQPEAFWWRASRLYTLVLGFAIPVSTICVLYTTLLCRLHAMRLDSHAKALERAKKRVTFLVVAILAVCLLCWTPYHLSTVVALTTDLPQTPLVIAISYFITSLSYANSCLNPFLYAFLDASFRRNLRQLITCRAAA
# [9] = target: T4, Rac GTPase-activating protein 1 (Homo sapiens, UniProt Q9H0H5); test: blockers of MgcRacGAP-driven Rac1 GTP hydrolysis – biochemical, ADP Hunter fluorescence, primary and confirmatory, confirmation (AID 624330); assay type: functional
# T4 sequence (Q9H0H5 whole entry): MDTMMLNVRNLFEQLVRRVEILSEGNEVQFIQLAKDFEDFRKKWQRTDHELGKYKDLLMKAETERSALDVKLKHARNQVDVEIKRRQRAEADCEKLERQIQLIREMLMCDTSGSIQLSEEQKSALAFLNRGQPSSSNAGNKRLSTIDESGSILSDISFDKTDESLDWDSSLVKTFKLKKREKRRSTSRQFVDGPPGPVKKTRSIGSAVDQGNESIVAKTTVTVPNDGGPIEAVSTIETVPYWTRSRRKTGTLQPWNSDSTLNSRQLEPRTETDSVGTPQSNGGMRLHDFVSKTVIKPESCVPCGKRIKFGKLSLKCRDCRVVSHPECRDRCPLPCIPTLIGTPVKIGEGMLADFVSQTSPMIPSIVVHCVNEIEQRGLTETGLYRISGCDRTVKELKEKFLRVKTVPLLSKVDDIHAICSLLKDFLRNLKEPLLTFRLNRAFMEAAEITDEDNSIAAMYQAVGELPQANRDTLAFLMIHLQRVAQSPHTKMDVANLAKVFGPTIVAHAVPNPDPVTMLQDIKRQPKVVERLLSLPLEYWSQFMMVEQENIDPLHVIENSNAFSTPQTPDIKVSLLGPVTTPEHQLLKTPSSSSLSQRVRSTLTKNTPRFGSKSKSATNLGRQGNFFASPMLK
# [10] = target: T5, Long-chain-fatty-acid--AMP ligase FadD28 (Mycobacterium tuberculosis, UniProt P9WQ59); test: Fluorescence polarization aasay to screen for inhibitors that compete for the binding of FadD28 to a bisubstrate Measured in Biochemical System Using Plate Reader - 2147-01_Inhibitor_Dose_CherryPick_Activity.; assay type: functional, Mycobacterium tuberculosis H37Rv
# T5 sequence (P9WQ59 whole entry): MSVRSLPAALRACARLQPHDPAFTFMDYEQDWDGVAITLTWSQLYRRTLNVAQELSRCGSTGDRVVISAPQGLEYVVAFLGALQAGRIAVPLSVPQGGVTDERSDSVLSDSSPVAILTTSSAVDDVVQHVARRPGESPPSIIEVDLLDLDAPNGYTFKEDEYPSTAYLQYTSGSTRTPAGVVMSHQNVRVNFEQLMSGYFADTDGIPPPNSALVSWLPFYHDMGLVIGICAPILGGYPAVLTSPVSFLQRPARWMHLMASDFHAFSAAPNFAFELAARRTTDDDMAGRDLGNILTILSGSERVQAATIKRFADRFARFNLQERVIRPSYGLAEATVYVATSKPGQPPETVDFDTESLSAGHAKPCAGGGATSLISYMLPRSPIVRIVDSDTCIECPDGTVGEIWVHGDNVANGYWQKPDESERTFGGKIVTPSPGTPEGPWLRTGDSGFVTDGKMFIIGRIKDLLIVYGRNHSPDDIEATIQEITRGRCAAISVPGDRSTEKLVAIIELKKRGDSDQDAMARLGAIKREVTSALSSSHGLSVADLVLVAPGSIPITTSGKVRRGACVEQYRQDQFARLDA
# Mu-type opioid receptor = Mu-type opioid receptor (Homo sapiens, UniProt P35372); assay type: functional, cell-based;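 further: U2OS cells with beta-arrestin recruitment to OPRM1 by beta-gal complementation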
# [11] = target: 5-hydroxytryptamine receptor 2A (Mus musculus, UniProt P35363); assay type: functional, cell-based;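 further: CHO-K1 cells with tagged receptor and beta-arrestin; agonist potency measured as compound-induced activation of the receptor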
# [12] = inhibitors of EBV LMP1 NF-kappaB signaling – cell-based, luciferase reporter, luminescence, dry powder, set 2, dose response (AID 624376); assay type: functional
# Vero = test: viability loss in Vero cells – cell-based, plate reader, cherry-pick samples, cytotoxicity control, dose response (AID 687020); assay type: functional; settings: Chlorocebus sabaeus
# [13] = target: Potassium channel subfamily K member 9 (Homo sapiens, UniProt Q9NPC2); test: KCNK9 flux blockade, concentration-response – cell-based, FluxOR thallium flux, selectivity assay for TASK1 inhibitor project, SAR follow-up (AID 652211); assay type: functional;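 further: potency is for inhibitors of the channel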
# [14] = viability loss in HEK293 kidney cells – cell-based, cherry-picks, set 5, cytotoxicity control, dose response (AID 1053117); assay type: functional
# [15] = general mammalian cell viability loss – activator set, cherry-pick, cytotoxicity control for miR-122 modulator project, dose response (AID 720690); assay type: functional, cell-based;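 further: HEK293T human cells scored for general mammalian cytotoxicity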
# [16] = activation of miR-122 Renilla sensor silencing – cell-based, Huh7 psiCHECK-miR122, Renilla luciferase, cherry-picked, dose response (AID 651956); assay type: functional;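 further: huh7 hepatoma cells stably carrying a psiCHECK-2 miR-122 sensor plasmid; renilla luciferase signal reporting endogenous miR-122 activity after 48 h compound exposure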
# [17] = target: T6, Botulinum neurotoxin type A (Clostridium botulinum (strain Hall / ATCC 3502 / NCTC 13319 / Type A), UniProt P0DPI1); test: High-throughput multiplex microsphere dose response for inhibitors of toxin protease, specifically Botulinum neurotoxin light chain A protease, compounds from Powder Set 01.; assay type: functional, Clostridium botulinum A str. ATCC 3502; settings: read-out: EC50_MICROM
# [18] = target: T6, Botulinum neurotoxin type A; test: Confirmatory FRET assay using full length substrates for Botulinum neurotoxin light chain A protease, with Powder Set01.; assay type: functional
# [19] = target: T7, Oxysterols receptor LXR-beta (Homo sapiens, UniProt P55055); assay type: functional, cell-based;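 further: agonist activity at LXR measured by a cell-based luminescence readout across a dose range, run as a counterscreen for daf-12 agonists; HEK293 cells with Gal4-LXR fusion and GAL4-driven luciferase reporter; potency for activation of Gal4-LXR reporter so compounds are agonists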
# T7 sequence (P55055 whole entry): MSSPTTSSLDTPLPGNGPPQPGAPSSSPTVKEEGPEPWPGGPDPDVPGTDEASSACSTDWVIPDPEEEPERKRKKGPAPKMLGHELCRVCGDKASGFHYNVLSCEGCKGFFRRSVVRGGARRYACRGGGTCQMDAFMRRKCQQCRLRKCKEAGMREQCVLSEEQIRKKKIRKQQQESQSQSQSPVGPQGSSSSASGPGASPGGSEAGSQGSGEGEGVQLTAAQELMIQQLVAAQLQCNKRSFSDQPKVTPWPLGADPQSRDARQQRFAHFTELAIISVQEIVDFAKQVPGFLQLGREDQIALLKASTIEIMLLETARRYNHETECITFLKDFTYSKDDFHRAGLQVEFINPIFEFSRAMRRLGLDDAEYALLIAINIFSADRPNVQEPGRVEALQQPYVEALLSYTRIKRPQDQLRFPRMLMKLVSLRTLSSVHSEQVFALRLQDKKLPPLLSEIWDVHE
# Albumin = Albumin (Bos taurus, UniProt P02769); test: Counterscreen for inhibitors of T-cell receptor (TCR)-CD3 interaction: Fluorescence-based biochemical high throughput dose response assay to identify inhibitors of T-cell receptor (TCR)-CD3 interaction using a TAMRA-labeled BSA probe.; assay type: functional
# HeLa = test: viability loss in HeLa cells – cell-based, ATP luminescence, cherry-pick samples, cytotoxicity control, dose response (AID 687004); assay type: functional; settings: Homo sapiens
# [20] = viability loss in mouse NIH3T3 cells – cell-based, CellTiter-Glo luminescence, dry powder, cytotoxicity control for PglD inhibitor project, dose response (AID 652044); assay type: functional
# [21] = target: DNA dC->dU-editing enzyme APOBEC-3G (Homo sapiens, UniProt Q9HC16); test: Dose Response confirmation of small molecule APOBEC3G DNA Deaminase Inhibitors via a fluorescence-based single-stranded DNA deaminase assay. [Related pubchem assays (depositor defined):AID493012, AID493028]; assay type: functional
# Beta-lactamase [22] = target: T8, Beta-lactamase (Pseudomonas aeruginosa, UniProt Q79MP6); test: inhibition of IMP-1 beta-lactamase activity – biochemical, epi-absorbance, selectivity assay for VIM-2 inhibitor project, dose response (AID 1920)
# Beta-lactamase [23] = target: T8, Beta-lactamase; test: […] counterscreen for selective VIM-2 inhibitors: dose response biochemical high throughput screening assay to identify inhibitors of IMP-1 metallo-beta-lactamase.
# [24] = target: DNA dC->dU-editing enzyme APOBEC-3A (Homo sapiens, UniProt P31941); test: A3A deaminase inhibition for selectivity – biochemical, dose response (AID 504722); assay type: functional
# Beta-lactamase [25] = target: Beta-lactamase (Salmonella choleraesuis (strain SC-B67), UniProt Q5J463); test: Epi-absorbance-based counterscreen for selective VIM-2 inhibitors: dose response biochemical high throughput screening assay to identify inhibitors of TEM-1 serine-beta-lactamase.
# Sequence of Beta-lactamase (Salmonella choleraesuis (strain SC-B67), UniProt Q5J463) (Q5J463 whole entry): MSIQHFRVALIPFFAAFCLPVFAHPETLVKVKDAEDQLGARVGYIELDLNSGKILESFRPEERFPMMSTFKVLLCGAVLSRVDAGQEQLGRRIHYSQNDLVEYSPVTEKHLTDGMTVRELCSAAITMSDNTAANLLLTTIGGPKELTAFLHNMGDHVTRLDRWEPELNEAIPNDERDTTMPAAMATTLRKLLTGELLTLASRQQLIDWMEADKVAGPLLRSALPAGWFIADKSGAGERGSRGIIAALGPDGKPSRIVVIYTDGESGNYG
# T6 sequence (P0DPI1 2-448 limits assumed): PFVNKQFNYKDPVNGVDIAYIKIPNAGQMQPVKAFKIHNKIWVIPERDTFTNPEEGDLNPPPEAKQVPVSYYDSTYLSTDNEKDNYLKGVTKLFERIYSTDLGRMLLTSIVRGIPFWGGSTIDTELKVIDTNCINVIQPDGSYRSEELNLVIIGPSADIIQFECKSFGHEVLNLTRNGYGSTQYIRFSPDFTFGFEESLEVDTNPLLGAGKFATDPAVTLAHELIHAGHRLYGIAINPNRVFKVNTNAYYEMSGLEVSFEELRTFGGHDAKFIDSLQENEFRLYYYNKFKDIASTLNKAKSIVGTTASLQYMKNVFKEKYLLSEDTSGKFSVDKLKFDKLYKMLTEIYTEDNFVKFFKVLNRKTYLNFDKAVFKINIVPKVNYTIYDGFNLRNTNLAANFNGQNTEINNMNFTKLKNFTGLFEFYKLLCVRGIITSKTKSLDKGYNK
# T8 sequence (Q79MP6 whole entry): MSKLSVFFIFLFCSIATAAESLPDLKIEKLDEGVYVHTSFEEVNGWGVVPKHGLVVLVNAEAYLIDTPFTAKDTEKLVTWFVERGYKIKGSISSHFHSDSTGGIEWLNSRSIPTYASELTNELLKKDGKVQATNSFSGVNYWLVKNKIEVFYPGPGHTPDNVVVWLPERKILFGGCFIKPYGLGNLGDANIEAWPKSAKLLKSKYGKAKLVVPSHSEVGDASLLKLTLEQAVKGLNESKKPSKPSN
# T1 sequence (Q9P0U3 whole entry, the tested form may be a part): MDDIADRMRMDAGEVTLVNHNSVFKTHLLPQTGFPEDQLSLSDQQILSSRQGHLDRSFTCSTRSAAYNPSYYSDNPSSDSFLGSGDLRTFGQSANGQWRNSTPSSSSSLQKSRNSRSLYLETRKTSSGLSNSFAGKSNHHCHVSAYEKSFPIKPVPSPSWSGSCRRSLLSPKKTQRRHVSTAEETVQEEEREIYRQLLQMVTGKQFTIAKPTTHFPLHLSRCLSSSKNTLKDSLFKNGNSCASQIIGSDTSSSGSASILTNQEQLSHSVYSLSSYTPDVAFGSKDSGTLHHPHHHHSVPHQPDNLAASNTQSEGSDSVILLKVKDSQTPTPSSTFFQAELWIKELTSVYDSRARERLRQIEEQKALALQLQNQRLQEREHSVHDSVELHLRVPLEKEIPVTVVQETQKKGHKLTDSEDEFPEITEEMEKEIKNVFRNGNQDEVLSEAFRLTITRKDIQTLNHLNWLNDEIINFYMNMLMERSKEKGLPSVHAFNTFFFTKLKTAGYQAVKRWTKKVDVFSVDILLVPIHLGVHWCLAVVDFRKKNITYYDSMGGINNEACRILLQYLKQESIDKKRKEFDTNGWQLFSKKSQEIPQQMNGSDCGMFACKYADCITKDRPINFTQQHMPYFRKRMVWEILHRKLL
# Sequence of DNA dC->dU-editing enzyme APOBEC-3G (Q9HC16 whole entry): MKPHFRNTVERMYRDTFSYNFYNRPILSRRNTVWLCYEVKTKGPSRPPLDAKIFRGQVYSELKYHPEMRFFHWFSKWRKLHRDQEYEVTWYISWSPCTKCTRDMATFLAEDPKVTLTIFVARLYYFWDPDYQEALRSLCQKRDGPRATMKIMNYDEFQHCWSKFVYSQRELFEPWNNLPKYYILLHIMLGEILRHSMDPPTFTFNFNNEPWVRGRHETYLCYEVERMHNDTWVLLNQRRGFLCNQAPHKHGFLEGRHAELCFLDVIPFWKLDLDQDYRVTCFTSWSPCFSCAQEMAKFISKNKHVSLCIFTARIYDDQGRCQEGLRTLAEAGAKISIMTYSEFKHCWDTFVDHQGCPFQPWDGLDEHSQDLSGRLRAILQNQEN
# Sequence of Melanin-concentrating hormone receptor 1 (Q99705 whole entry): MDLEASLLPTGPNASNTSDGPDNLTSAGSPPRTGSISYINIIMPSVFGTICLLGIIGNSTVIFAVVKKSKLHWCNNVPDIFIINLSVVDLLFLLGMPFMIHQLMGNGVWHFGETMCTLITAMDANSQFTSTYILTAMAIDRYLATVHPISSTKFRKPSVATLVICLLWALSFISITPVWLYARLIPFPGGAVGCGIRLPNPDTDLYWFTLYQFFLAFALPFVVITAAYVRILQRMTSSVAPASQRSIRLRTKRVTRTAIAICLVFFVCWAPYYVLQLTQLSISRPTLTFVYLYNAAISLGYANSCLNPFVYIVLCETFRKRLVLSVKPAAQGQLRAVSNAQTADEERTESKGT
# Sequence of Potassium channel subfamily K member 9 (Q9NPC2 whole entry): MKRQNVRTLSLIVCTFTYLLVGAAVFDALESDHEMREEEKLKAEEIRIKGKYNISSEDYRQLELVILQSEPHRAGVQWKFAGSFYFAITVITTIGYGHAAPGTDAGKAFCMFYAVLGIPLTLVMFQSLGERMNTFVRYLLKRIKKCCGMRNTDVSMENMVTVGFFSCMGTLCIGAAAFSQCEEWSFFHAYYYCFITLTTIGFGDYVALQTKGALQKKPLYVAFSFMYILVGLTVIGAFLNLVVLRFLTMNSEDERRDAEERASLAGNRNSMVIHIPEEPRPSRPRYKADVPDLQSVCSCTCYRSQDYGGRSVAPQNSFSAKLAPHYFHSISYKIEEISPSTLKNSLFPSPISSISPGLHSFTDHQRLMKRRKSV
# Sequence of 5-hydroxytryptamine receptor 2A (P35363 whole entry): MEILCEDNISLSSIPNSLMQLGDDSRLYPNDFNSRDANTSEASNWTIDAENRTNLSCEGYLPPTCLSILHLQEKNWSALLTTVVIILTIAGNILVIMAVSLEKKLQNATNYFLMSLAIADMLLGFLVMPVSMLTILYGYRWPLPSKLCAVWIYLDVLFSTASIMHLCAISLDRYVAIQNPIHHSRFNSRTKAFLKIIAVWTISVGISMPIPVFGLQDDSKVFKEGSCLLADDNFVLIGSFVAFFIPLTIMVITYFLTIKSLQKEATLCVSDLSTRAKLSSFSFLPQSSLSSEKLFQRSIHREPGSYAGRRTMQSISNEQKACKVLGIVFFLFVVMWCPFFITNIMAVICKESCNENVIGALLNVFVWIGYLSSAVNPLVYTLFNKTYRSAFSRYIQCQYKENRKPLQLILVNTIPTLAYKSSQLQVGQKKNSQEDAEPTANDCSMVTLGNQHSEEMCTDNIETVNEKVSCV
# Sequence of DNA dC->dU-editing enzyme APOBEC-3A (P31941 whole entry): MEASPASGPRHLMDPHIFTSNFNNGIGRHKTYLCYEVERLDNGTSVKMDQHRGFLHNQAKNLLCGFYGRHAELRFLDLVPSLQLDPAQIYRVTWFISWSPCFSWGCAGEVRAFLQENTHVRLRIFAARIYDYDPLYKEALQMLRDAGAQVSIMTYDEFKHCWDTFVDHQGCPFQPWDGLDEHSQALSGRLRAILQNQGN
# Sequence of Albumin (P02769 whole entry): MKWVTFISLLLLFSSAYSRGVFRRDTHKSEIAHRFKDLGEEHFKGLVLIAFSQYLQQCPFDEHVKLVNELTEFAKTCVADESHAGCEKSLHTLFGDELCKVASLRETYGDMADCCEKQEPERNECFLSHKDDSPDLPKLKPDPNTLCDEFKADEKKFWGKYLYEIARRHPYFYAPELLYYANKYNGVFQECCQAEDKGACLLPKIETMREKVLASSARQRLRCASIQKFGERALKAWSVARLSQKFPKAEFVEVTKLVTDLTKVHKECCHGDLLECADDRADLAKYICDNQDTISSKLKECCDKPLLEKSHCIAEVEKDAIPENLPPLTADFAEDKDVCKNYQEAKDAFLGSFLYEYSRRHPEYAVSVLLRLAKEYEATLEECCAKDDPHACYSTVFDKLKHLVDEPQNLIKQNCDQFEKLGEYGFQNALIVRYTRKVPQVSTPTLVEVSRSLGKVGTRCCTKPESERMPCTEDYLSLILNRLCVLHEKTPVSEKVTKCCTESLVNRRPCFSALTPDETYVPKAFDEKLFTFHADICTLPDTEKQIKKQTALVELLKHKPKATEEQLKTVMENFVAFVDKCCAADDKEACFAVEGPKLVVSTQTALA
# Sequence of Mu-type opioid receptor (P35372 whole entry): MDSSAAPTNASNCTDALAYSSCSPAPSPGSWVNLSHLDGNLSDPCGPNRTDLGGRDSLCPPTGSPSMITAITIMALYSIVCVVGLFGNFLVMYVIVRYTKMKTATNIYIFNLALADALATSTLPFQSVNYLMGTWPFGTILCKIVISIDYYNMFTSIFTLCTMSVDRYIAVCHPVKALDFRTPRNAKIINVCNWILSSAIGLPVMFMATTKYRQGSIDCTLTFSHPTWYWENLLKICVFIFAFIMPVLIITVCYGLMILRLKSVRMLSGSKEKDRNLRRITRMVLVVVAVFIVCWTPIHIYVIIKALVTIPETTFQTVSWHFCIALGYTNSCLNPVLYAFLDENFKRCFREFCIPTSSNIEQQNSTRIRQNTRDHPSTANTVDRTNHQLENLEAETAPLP
# Sequence of Paired box protein Pax-8 (Q06710 whole entry): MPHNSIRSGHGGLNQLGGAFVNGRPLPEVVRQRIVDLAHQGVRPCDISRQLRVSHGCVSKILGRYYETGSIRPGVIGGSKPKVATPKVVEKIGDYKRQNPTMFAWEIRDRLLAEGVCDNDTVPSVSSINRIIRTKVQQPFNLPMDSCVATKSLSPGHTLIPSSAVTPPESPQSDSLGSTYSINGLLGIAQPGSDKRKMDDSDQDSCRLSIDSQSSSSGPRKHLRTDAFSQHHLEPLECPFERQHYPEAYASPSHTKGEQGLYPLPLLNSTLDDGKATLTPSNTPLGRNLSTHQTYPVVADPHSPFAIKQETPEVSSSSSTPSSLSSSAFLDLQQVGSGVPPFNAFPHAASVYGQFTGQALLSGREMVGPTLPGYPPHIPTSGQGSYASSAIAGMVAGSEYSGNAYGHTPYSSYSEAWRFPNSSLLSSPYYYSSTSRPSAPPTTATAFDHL
smiles,measurement,setting,value
Cc1ccc(Oc2ccc(Oc3ccc(C)cc3)nn2)cc1,IC50,Beta-galactosidase,> 80 µM (inactive)
N#CC1=C(N)Oc2cc(Nc3ccccc3)ccc2C1c1ccncc1 (configuration not stated),IC50,[1],48.3 µM (inactive)
same,IC50,[2],30.5 µM (inactive)
same,IC50,[3],41.9 µM (inactive)
O=C1C=C(NCc2ccccc2)C(=O)c2ccccc21,AC50,[4],7.74 µM (active)
same,AC50,[5],> 70 µM (inactive)
COc1cc(-c2cnc3c(NC=O)cc(-c4ccc(C)cc4)cn23)cc(OC)c1OC,AC50,Paired box protein Pax-8,< 0.26 µM (active)
same,IC50,cells,> 67.5 µM (inactive)
same,IC50,[6],> 0.834 µM (active)
C/N=c1\scc(-c2ccc(F)cc2)n1/N=C/c1ccc(O)c(O)c1,IC50,[7],13 µM (not active)
same,IC50,[8],> 14.6 µM (not active)
same,IC50,[9],29.6 µM (active)
same,AC50,[10],12.2 µM (active)
same,EC50,Mu-type opioid receptor,92.5 µM (inactive)
same,EC50,[11],5.08 µM (active)
C[C@H](NC(=O)C[C@H]1C[C@@H]2c3cc(NC(=O)c4cccnc4)ccc3O[C@@H]2[C@@H](CO)O1)c1ccccc1,AbsAC35,[12],164.54 µM
CCOC(=O)[C@@H]1[C@H]2COc3ccc(Br)cc3[C@@H]2N2C(=O)N(c3ccc(C)cc3)C(=O)[C@]12C,AC50,Vero,35.3 µM (active)
COc1cccc(C(=O)Nc2cccc(NC(=O)c3cccc(C)c3)c2)c1,IC50,[13],29.3 µM (active)
CN(C)C(=O)c1ccc(-c2ccc3c(c2)[C@@H]2[C@@H](CCN2C(=O)c2ccc(F)cc2)[C@H](CO)N3C)cc1,AC50,[14],> 52 µM (inactive)
CN1C(=O)c2cc(NC(=O)c3cccc(F)c3)ccc2OC[C@H]2O[C@H](CC(=O)N3CCc4ccccc4C3)CC[C@@H]21,AC50,[15],31.3 µM (active)
same,AC50,[16],18.8 µM (active)
O=[N+]([O-])c1ccc([N+]2=N[C-](c3ccccc3)CC2c2ccccc2)cc1 (configuration not stated),EC50,[17],0.3 µM (active)
same,EC50,[18],1.1 µM (active)
O=C(Nc1ccc(Cl)cn1)c1cc2ccccc2o1,EC50,[19],> 67.5 µM (inactive)
O=C(NNC(=O)c1ccc2ccccc2c1O)c1cccs1,IC50,Albumin,> 94.1 µM (inactive)
N#Cc1ccc(-c2ccc3c(c2)[C@H]2[C@H](CCN2C(=O)Cc2ccccc2)[C@@H](CO)N3)cc1,AC50,HeLa,28.5 µM (active)
CC(C)NC(=O)N(C)C[C@@H]1Oc2ccc(NC(=O)Cc3cn(C)c4ccccc34)cc2C(=O)N([C@H](C)CO)C[C@H]1C,AC50,[20],> 47 µM (inactive)
Cn1c(-c2sccc2OCc2ccccc2)n[nH]c1=S,IC50,[21],2.8 µM (active)
same,IC50,Beta-lactamase [22],> 59.6 µM (inactive)
same,IC50,Beta-lactamase [23],> 59.6 µM (inactive)
same,IC50,[24],> 100 µM (inactive)
same,IC50,Beta-lactamase [25],> 59.6 µM (inactive)
